Experimental data from patent publication US20100203021A1, “PROVISION OF NEW CARDIOMYOCYTE PROGENITOR CELLS AND CARDIOMYOCYTES DERIVED THEREFROM” (LEAD PHARMA CEL MODELS IP B.V., priority 2007, published 2010).

Columns and labels:
Assay type in all cases: cell-based, human
hCMPCs = experiment: Differentiation of hCMPCs into cardiomyocytes (5-azacytidine, ascorbic acid, TGFβ); RT-PCR, Western blot, α-actinin immunofluorescence
Experimental: For a cell type to be suitable for cardiomyocyte replacement therapies, it should not only be able to proliferate but also differentiate efficiently into cardiomyocytes. To study the capacity of the hCMPCs of the invention to differentiate into cardiomyocytes, cells were plated at 10^5 per cm^2 in differentiation medium containing ascorbic acid and treated with 5-azacytidine (which is a demethylating agent).
(§1) To determine whether CMPCs of the invention were capable of responding to TGFβ ligand we examined their ability to phosphorylate smad proteins. TGFβ exerts its effect by binding to a complex of type I and type II receptor and phosphorylating Smads^30. TGFβ phosphorylates Smad2 while BMP phosphorylates Smad1. […] To examine the effect of TGFβ on cardiomyocyte differentiation, hCMPCs were plated at 2×10^4 cells per cm^2 in differentiation medium, treated with 5-aza for 24 hours and cultured for up to 3 weeks in differentiation medium supplemented with TGFβ (1 ng/ml).
To induce differentiation, cells were treated with 5 μM 5′-azacytidine (Sigma) for 72 hours in differentiation medium (Iscove's Modified Dulbecco's Medium/HamsF12 (1:1) (Gibco)) supplemented with L-Glutamine (Gibco), 2% horse serum, non-essential amino acids, Insulin-Transferrin-Selenium supplement, and 10^−4 M Ascorbic Acid (Sigma)). After induction, the medium was changed every 3 days.
For TGFβ treatment, CMPCs were cultured in differentiation medium, stimulated with 5 μM 5′-azacytidine (Sigma) and 1 ng/ml TGFβ1 (Sigma) added 24 hours later. The medium was changed every 3 days.
RNA was isolated using of Trizol (Invitrogen, Breda, The Netherlands) and reverse transcribed using oligo-dT Superscript 3 (Invitrogen). The PCR reactions started with 2 min at 94° C. followed by 35 cycles of: 15 s at 94° C., 30 s at 55° C. and 45 s at 72° C. Products were analyzed on ethidium bromide-stained 1% agarose gel. β-tubulin or β-actin were used as RNA input control.
Coverslips with cultured cells were rinsed in serum free medium, fixed in methanol (−20° C.) or 4% paraformaldehyde, washed with PBS and permeabilized with 0.2% Triton X-100/PBS. Non-specific binding of antibodies was blocked with 2% bovine serum albumin (BSA). Incubation with primary antibodies was performed overnight in PBS/10% normal goat serum (NGS). Antibodies used recognized GATA-4 (Santa Cruz), Islets-1 (Hybridoma Bank), Cx40 (Chemicon), Cx43 (Zymed), Cx45 (kindly provided by Dr. T. H. Steinberg, Washington University, St. Louis, USA), α-actinin (Sigma), Troponin I (Chemicon) desmin (Sanbio), titin (Sigma), MLC2v (Alexis), β-MHC (kindly provided by Dr. A. F. M. Moorman, AMC Amsterdam, Netherlands), N-cadherin (Sigma) and ZO-1 (Zymed). Immunolabeling was performed using Texas Red (TR)- or fluorescein isothiocyanate (FITC)-conjugated secondary antibodies (Jackson Laboratories). All incubation steps were performed at room temperature and in between all incubation steps, cells were washed with PBS. Finally, coverslips were mounted in Vectashield (Vector Laboratories) and examined with a Nikon Optiphot-2 light microscope equipped for epifluorescence.
Western blot analysis was performed as described previously^35. Detection was by ECL (Amersham). […]

Smad2 = experiment: Western blot for TGFβ induced Smad2 phosphorylation in CMPCs; conditions: 1 ng/ml TGFβ, Western blot α-pSmad2
Experimental: as §1
(§2) FIG. 3: (A) Western blot analysis on protein samples isolated from CMPCs stimulated without or with 1 ng/ml TGFβ or 25 ng/ml BMP-6 and probed with α-pSmad1 or α-pSmad2. Asterisk indicates an non-specific band showing equal loading. B) Semi-quantitative RT-PCR on RNA isolated from CMPCs stimulated without or with 1 ng/ml TGFβ for the indicated days probed for the expression of the early cardiac transcription factors Nkx2.5 and Mef2C, the contractile proteins cardiac actin, cardiac Troponin I, desmin, ANP and MLC2v. β-actin was used as a control for equal RNA input. C) Western blot analysis on protein samples from CMPCs stimulated without or with 1 ng/ml TGF for the indicated days, probed for Nkx2.5 or α-actinin. […] Counterstaining of nuclei was performed using DAPI. Bar=50 μm. […]

CMPC = experiment: In vitro angiogenesis assay: tube formation by CMPC on Matrigel/ECMatrix; conditions: CMPCs on Matrigel, addition of VEGF
Source text: We have also established differentiation of CMPCs of the invention into tubular vascular structures (angiogenesis) on Matrigel, said “tubular vascular structures” which are sometimes also denoted herein as “tubular structures” containing aligned endothelial cells encircled by smooth muscle cells. […] The formation of these newly formed capillary tubes can be visualised for example by staining α-SMA (a smooth muscle actin) on smooth muscle cells and/or PECAM-1 (platelet endothelial cell adhesion molecule-1, CD31) on endothelial cells (see also appended Example 8). Antibodies which can be used in this regard are exemplified in the following: SMA antibody: AB5694 from abcam, clone 1A4, Sigma, cat. Number: A2547, or Dako, cat. Number M08510. Endothelial cells: PECAM-1 clone 9G11 or CD34 clone Qbend/10 form Biogenex or CD31 from Sigma and ve-cadherin from Santa Cruz.
In this case the assay is set up in order to test the influence of diverse compounds (i.e. chemical compounds or miRNA etc.) on tube formation by CMPC (cardio mycocyte progenitor cells). In order for these cells to form tubes these cells have to differentiate into smooth muscle cells and endothelial cells.
The formation of these newly formed capillary tubes is visualised by staining α-SMA (α smooth muscle actin) on smooth muscle cells and PECAM-1 (platelet endothelial cell adhesion molecule-1, CD31) on endothelial cells. […]

Smad1 = experiment: Western blot for BMP induced Smad1 phosphorylation in CMPCs; conditions: 25 ng/ml BMP-6, Western blot α-pSmad1
Experimental: as §1, §2

Nc1ncn([C@@H]2O[C@H](CO)[C@@H](O)[C@H]2O)c(=O)n1 [5-azacytidine, reference compound]
differentiation of hCMPCs into cardiomyocytes (beating areas) (hCMPCs; hCMPCs 10^5 per cm^2, differentiation medium with ascorbic acid, three weeks after treatment): spontaneously beating areas were observed

TGFβ: TGFβ1 (Sigma), 1 ng/ml, added to differentiation medium
expression of Nkx2.5 and α-actinin (Western blot) (hCMPCs; CMPCs, 7 days of culture in the presence of TGFβ 1 ng/ml): increased dramatically
percentage of α-actinin positive cells (hCMPCs; hCMPCs, 5-aza 24 hours, then TGFβ 1 ng/ml, immunofluorescent staining): ~100%
expression of cardiac genes Troponin-I, ANP, cardiac-actin and desmin (RT-PCR) (hCMPCs; hCMPCs, 5-aza, TGFβ 1 ng/ml, undetectable in its absence): already observed 7 days after the initiation of differentiation
MLC2v expression (RT-PCR) (hCMPCs; hCMPCs, 5-aza, TGFβ 1 ng/ml, without TGFβ only after 3 weeks): already present after two weeks
Smad2 phosphorylation (Smad2): TGFβ induced Smad2 phosphorylation

VEGF
formation of capillary tubes (CMPC): can be induced

B1: BMP: bone morphogenetic protein; 25 ng/ml BMP-6 in FIG. 3A (protein, UniProt P22004 375-513, looked up)
Bone morphogenetic protein 6: SASSRRRQQSRNRSTQSQDVARVSSASDYNSSELKTACRKHELYVSFQDLGWQDWIIAPKGYAANYCDGECSFPLNAHMNATNHAIVQTLVHLMNPEYVPKPCCAPTKLNAISVLYFDDNSNVILKKYRNMVVRACGCH
Smad1 phosphorylation (Smad1): clear BMP induced Smad1 phosphorylation
